# In patent US9695219B2, “Polypeptide having antibacterial activity and angiogenesis-inducing activity and wound-healing drug containing said polypeptide” (priority 2009, dated 2017):
# Where a SMILES comes first, the peptide text is derived from it. [ ]: non-standard residue; d: D form.
# Assays:
# [1] = tested on: Normal human dermal fibroblasts (NHDFs); assay: Collagen production test; type: cell-based; settings: 5-day culture
# Description: Normal human dermal fibroblasts (NHDFs) were plated in a 48-well plate. As a medium, Medium 106 containing 1% FBS was used. After culturing in an incubator at 37° C. under 5% CO2 for about 3 hours, the peptide or FGFb (Positive Control), which had been diluted with the medium to each concentration, was added, and the culturing was further continued. The medium was replaced with a medium containing the same additive on Day 3, and the culturing was continued for another 2 days.
# The amount of produced collagen was measured by using Semi-Quantitative Collagen Assay Kit.
# After the 5-day culture, the medium was removed by aspiration, and the cells were washed with cold PBS(−). Cold methanol/ethanol was added thereto and the plate was left to stand for 10 minutes at room temperature to fix the cells. The cells were washed twice with cold PBS(−). Then, a staining solution (Dye Solution) was added to each well, and the plate was left to stand at room temperature for 30 minutes. The staining solution was removed, and the cells were washed 4-5 times with deionized water. An extraction solution (Dye Extraction Solution) was added to each well to extract the dye, and the absorbances of the extract at 540 nm and 605 nm were measured.
# The amounts of collagen and noncollagen proteins were calculated according to the following equation. […]
# [2] = tested on: rat infected-wound model (wound infected with Staphylococcus aureus); assay: Healing effect in infected wounds; type: in vivo; settings: 50 μg dropwise Days 0-3 with Staphylococcus aureus, followed to Day 10; vs bFGF formulation 3 μg
# Description: Referring to Stenberg B D et al. (J Surg Res. 1991 January; 50(1):47-50.) and Hayward P et al. (Am J Surg. 1992 March; 163(3):288-93.), a rat infected-wound model was produced as described below. HWY/slc hairless rats (male, 7-week old, obtained from Japan SLC, Inc.) were used. The day before full-thickness defects were created, the number of leukocytes was measured and cyclophosphamide was administered in tail vein (100 mg/kg). On the next day, the number of leukocytes was counted. Only the individuals in which the number of leukocytes was not more than 5000, were used. A square-shaped full-thickness defects of 1.73×1.73 cm (about 3 cm^2) were created on the back of the rats, and 25 μL of Staphylococcus aureus (about 10^5 CFU/25 μL) and SR-07 or SR-08 peptide as a test substance (2 mg/mL) was added dropwise onto the defect sites (the administered amount was 50 μg). On the other hand, 25 μL of the bFGF formulation (3 μg/25 μL) was added dropwise in the bFGF formulation (a positive control) group, and 25 μL of physiological saline was added dropwise in the negative control groups. […] From the day when the full-thickness defects were created to Day 10, the area where the wounds had still not healed was measured to calculate the ratio of it relative to the area where the wounds were created, and the results were shown in graphs (FIG. 9 (SR-07) and FIG. 10 (SR-08)).
# [3] = tested on: paper disc model, Crl:CD (SD) rats; assay: Ability to form granulation tissue in paper disc model; type: in vivo, rat; settings: 1, 10 or 100 μg/disc, subcutaneous, eight days
# Description: Then, the ability to form granulation tissue of these polypeptides in vivo was studied. Each of the peptides which were test substances and whose concentration was respectively 25, 250 and 2500 μg/mL, the bFGF formulation whose concentration was respectively 2.5, 25 and 250 μg/mL (positive controls) or saline (negative controls) was added to a paper disc (FILTER PAPER φ8 mm, […]) in an amount of 40 μl, such that, in the final state, the dosage of each peptide was 1, 10 or 100 μg/disc. The prepared paper discs were embedded subcutaneously into the back of Crl:CD (SD) rats (male, 9-week old, obtained from Charles River Laboratories Japan, Inc.). Eight days later, the paper discs were taken out, and the granulation tissues around the paper discs were collected to determine their wet weight.
# [4] = tested on: Pseudomonas aeruginosa (clinical strain 12); assay: MIC measurement, broth microdilution; type: cell-based; settings: 37° C. for 20 hours; tested twice, first/second value where not matched
# Description: (§1) (CLSI), but, in this Example, its measurement was carried out by a broth microdilution method in accordance with “M100-S17/M7-A7” (Performance Standards for Antimicrobial Susceptibility Testing; Seventeenth Informational Supplement, Vol. 27 No. 1) published by CLSI on January, 2007. That is, sensitivity test of agents was carried out using a microtiter plate or test tubes.
# (§2) Each peptide was prepared to an optional concentration, and the solutions were serially diluted from the concentration. The polypeptide at each concentration stage was added to a microplate or test tubes, and the bacterial suspension was added thereto.
# [5] = Stability in human serum (HPLC); type: in vitro ADME; settings: 37° C.
# Description: The stability of the polypeptides in serum was evaluated. In human serum (purchased from KAC Co., Ltd.), or in rat serum obtained by collecting blood from a rat, then leaving the collected blood to stand at room temperature followed by centrifugation, each of the peptides was dissolved so as to attain a final concentration of 500 μg/mL, and the obtained solutions were left to stand at 37° C. After leaving to stand for 3 min or 10 min, these solutions were subjected to HPLC chromatogram analysis to detect peaks of the decomposition products, and calculate the ratio of the concentration of the peptides which remained in the solutions relative to the starting concentration. In addition, the half-lives of the peptides in serum were also calculated.
# [6] = tested on: Pseudomonas aeruginosa (clinical strain 8); assay: MIC measurement, broth microdilution; type: cell-based; settings: 37° C. for 20 hours; tested twice, first/second value where not matched
# Description: as §1, §2
# [7] = tested on: Pseudomonas aeruginosa (clinical strain 9); assay: MIC measurement, broth microdilution; type: cell-based; settings: 37° C. for 20 hours; tested twice, first/second value where not matched
# Description: as §1, §2
compound,measurement,setting,value
CC[C@H](C)[C@H](NC(=O)[C@H](CC(C)C)NC(=O)[C@H](CCCCN)NC(=O)[C@@H](N)CC(C)C)C(=O)N[C@@H](Cc1ccccc1)C(=O)N[C@@H](CC(C)C)C(=O)N[C@@H](Cc1c[nH]cn1)C(=O)N[C@@H](CCCNC(=N)N)C(=O)N[C@@H](CC(C)C)C(=O)N[C@@H](CCCCN)C(=O)N[C@@H](CCCNC(=N)N)C(=O)N[C@@H](CCSC)C(=O)N[C@@H](CCCNC(=N)N)C(=O)N[C@@H](CCCCN)C(=O)N[C@@H](CCCNC(=N)N)C(=O)N[C@@H](CC(C)C)C(=O)N[C@H](CCCCN)C(=O)N[C@@H](CCCNC(=N)N)C(=O)N[C@@H](CCCCN)C(N)=O [SR-08] (H-LKLIFLHRLKRMRKRL[dK]RK-NH2; N-terminus assumed),Collagen production of fibroblasts (FIG. 2),[1],had an effect to induce collagen production of the fibroblasts
same,"Healing effect on infected wounds (unhealed area ratio, FIGS. 9 and 10)",[2],showed a higher healing effect on infected wounds than the bFGF formulation
same,"Granulation tissue formation (wet weight around paper disc, FIGS. 5 and 6)",[3],promoted granulation tissue formation in vivo
same,"MIC, Pseudomonas aeruginosa (clinical strain 12)",[4],16/32
same,"Ratio of peptide remaining relative to the starting concentration, human serum, 0 min","[5]; 500 μg/mL, 0 min",100
same,"remaining at 0.05 h, 500 μg/mL","[5]; human, human serum, 3 min, read-out: Ratio of peptide remaining relative to the starting concentration, human serum, 3 min",95%
same,"remaining at 10 min, 500 μg/mL","[5]; human, human serum, 10 min, read-out: Ratio of peptide remaining relative to the starting concentration, human serum, 10 min",65.8%
same,half-life,"[5]; human, serum, 500 μg/mL",16 min
same,"MIC, Pseudomonas aeruginosa (clinical strain 8)",[6],16/32
same,"MIC, Pseudomonas aeruginosa (clinical strain 9)",[7],16/64
